In US12636373B2, “Prodrugs with a tridentate self-immolative linker” (The General Hospital Corporation, priority 2018, dated 2026):
Where a SMILES comes first, the peptide text is derived from it. [ ]: non-standard residue; d: D form. The star is where a group is joined. ξ: configuration not given here. Dolaproine = CO[C@@H]([C@@H]1CCCN1)[C@@H](C)C(=O)O; X1 = C=CCOC(=O)Nc1ccc(C(OC(=O)*)C(=O)NCC)cc1; Dil = CC[C@H](C)[C@H](NC)[C@@H](CC(=O)O)OC; X2 = C[C@@H](N*)[C@@H](O)c1ccccc1; NMeV = CN[C@H](C(=O)O)C(C)C; ξV = CC(C)C(N)C(=O)O

Columns and labels:
[1] = In vitro NP prodrug release in PBS; format: physicochemical; conditions: over 72 h at 37° C. in PBS
Procedure: Transmission electron microscopy (TEM) was performed in the Microscopy Core of the Center for Systems Biology/Program in Membrane Biology (MGH). […] Excess solution was blotted, grids were stained with phosphotungstic acid, and then blotted, dried and imaged. In vitro NP prodrug release was performed by incubating in PBS at 37° C., separating NPs using a 30 kDa molecular weight cutoff filter (Millipore Amicon) after 72 h, and measuring flow-through for drug content by absorbance (Nanodrop). NP was dissolved in DMF and also measured for drug content by absorbance. Pd-NP, Alloc2R110 and its nanoformulation, and all Pd compounds were synthesized and characterized as previously described.^5

[2] = tested on: panel of 4 cancer cell lines; assay: Cytotoxicity across a panel of cancer cell lines, 72 h; format: cell-based; conditions: prodrug alone, concentrations ≤10 μM
HT1080-EB3-mApple cells = assay: EB3 microtubule comet imaging in live cells; format: cell-based, human; conditions: 24 h; for microtubule comets (prevalence and growth speed): individual treatment, 1 μM MMAE or C16proMMAE, 35 μM Pd-NP
Procedure: Microtubule imaging. EB3 tracking was performed using an FV1000 confocal laser scanning microscope on a 37° C. heated stage, with XLUMPLFLN 20× (NA 1.0) or LUMFLN 60× (NA 1.1) water-immersion objectives, 1-10× digital zoom, 559-nm diode laser, and BA575-620 emission filter (all Olympus America). […] EB3 tracks were automatically identified and analyzed from time-lapse datasets using u-track software,^35 with tuning of maximum gap number and minimum frame number across datasets to account for differences in image quality; ambiguous and spurious tracks and artifacts were excluded according to requirements for directional continuity (directional persistence as net displacement/path length>0.8) and movement (value>3 pixels). Speed was determined between frames in each track and averaged for each track by computing the mean of the middle 80% of between-frame values. Track overlay figures were produced using a custom python script. Averaged track speeds excluded outliers falling more than 1.5× the interquartile range for each biological replicate.

[3] = tested on: subcutaneous HT1080 xenograft tumors; assay: HT1080 xenograft tumor growth; format: in vivo, nu/nu mice
Procedure: (§1) Cell lines and animal models: All animal research was performed in accordance with guidelines from the Institutional Subcommittee on Research Animal Care. HT1080 xenografts were generated by 2 million cells implanted subcutaneously in flanks of 6-8 week old female nu/nu mice (Cox7/MGH) in 50 μl PBS. MC38 syngeneic tumors were formed by intradermal implantation of 2 million cells in 50 μl PBS, in the flanks of 7-12 week old female C57BL/6 mice (JAX), following previously described inoculation protocols.^33 Four blinded caliper measurements per tumor were used to measure tumor size according to the formula V=(width)^2(length)/2; animals were randomly assigned to treatment groups. Experiments build on prior imaging, biodistribution, and longitudinal tumor growth data that likewise guided determination of experimental sample sizes.^5, 30 Treatment began approximately 3 weeks post-implantation once tumors reached an average diameter of 5.5±1.8 mm in the HT1080 model (mean±std. dev.; n=72), and roughly 2 weeks post-implantation in the MC38 model once tumors reached an average diameter of 5.45±1.2 mm (mean±std. dev.; n=14). […] Blood chemistry readouts were measured from plasma collected in heparinized tubes by terminal cardiac puncture under vaporized isoflurane anesthesia, using the MGH Veterinary Clinical Pathology lab and the automated DriChem blood chemistry analyzer (Heska). […]

[4] = tested on: MC38 murine colon adenocarcinoma tumors; assay: MC38 syngeneic tumor growth; format: in vivo, C57BL/6 mice; conditions: combined with Pd-NP
Procedure: as §1

[5] = Body weight and blood chemistry of treated tumor-bearing animals; format: in vivo, mice; conditions: dual Pd-NP and C16proMMAE
Procedure: as §1

[6] = tested on: HT1080 fibrosarcoma cancer cells; assay: Resazurin-based cytotoxicity assay, 72 h
Procedure: In vitro NP characterization: 5,000 cells per well were added to 96-well plates for cytotoxicity assessment; cells were treated after overnight seeding with compound or the appropriate buffer control (drug-free PLGA-PEG NP), and assessed for viability 72 h later using PrestoBlue (Life Technologies) following the manufacturer's protocol.

[7] = Nano-encapsulation (loading) efficiency, PLGA-PEG nanoprecipitation; format: physicochemical; conditions: PLGA-PEG polymeric micellar formulation
Procedure: Initial experiments determined up to 1 mg of C16 prodrug could be used with the same polymer composition with no detectable loss in loading efficiency. For fluorescence-based imaging and flow-cytometric detection of NP uptake, PLGA-BODIPY630 was used instead of PLGA (described previously).^5 NP drug and Pd compound loadings were determined by absorbance (Nanodrop spectrophotometer), interpolation from a standard curve (R^2>0.99) after 1:10 dilution in DMF. Size and zeta potential measurements were performed using dynamic light scattering (Malvern Zetasizer). Prodrug loading efficiency is defined as the fraction of initial drug used in the nano-precipitation reaction that was successfully encapsulated and recovered in final NP product.

[8] = cited from earlier work

Row | Compound | release of the prodrug payload from the nanoformulation [1] [%] | impact on cell growth [2] | microtubule comets (HT1080-EB3-mApple cells; 1 μM C16proMMAE combined with 35 μM Pd-NP) | microtubule comets (prevalence and growth speed) (HT1080-EB3-mApple cells) | tumor growth at 2 days following the 2nd round of treatment ([3]; combined with Pd-NP) | reduction in prodrug dose required for controlling tumor growth in vivo ([3]; compared to Alloc-DOX) [fold] | tumor growth [4] | tumor growth at 2 days following the 2nd round of treatment [4] | drug-induced weight loss ([5]; HT1080 or MC38 tumor-bearing animals) | blood chemistry analysis ([5]; MC38 tumor-bearing mice) | enhanced cytotoxicity with sub-micromolar Pd-NP ([6]; HT1080, sub-micromolar Pd-NP) [fold] | IC50 ([6]; Homo sapiens, HT-1080, 72 h, read-out: IC50 upon Pd-NP activation) [nM] | level of prodrug activation based on cytotoxicity ([6]; Pd-NP concentration 50 μM) [%] | concentration at which cytotoxic upon activation by Pd-NP ([6]; with Pd-NP) [nM] | turn-on capacity in cytotoxicity ([6]; with vs without Pd-NP) | nano-encapsulation efficiency [7] | toxicity at equivalent doses [8]
1 | C=CCOC(=O)Nc1ccc(C(OC(=O)N(C)[C@H](C(=O)NC(C(=O)N(C)[C@@H]([C@@H](C)CC)[C@@H](CC(=O)N2CCC[C@H]2[C@H](OC)[C@@H](C)C(=O)N[C@H](C)[C@@H](O)c2ccccc2)OC)C(C)C)C(C)C)C(=O)NCC)cc1 (stereo partly drawn) [C16proMMAE, Alloc-SIL-C16-MMAE] (X1-[NMeV][ξV][Dil][Dolaproine]-X2) | < 10 | no detectable impact on cell growth | complete elimination of visible comets | not substantially perturbed | completely blocked | 50 | effective at slowing tumor growth | completely blocked | did not show drug-induced weight loss | no signs of drug-induced liver or kidney toxicity | > 10 | 0.015 | > 90 | < 0.1 | > 70,000 × | – | –
2 | CC[C@H](C)[C@@H]([C@@H](CC(=O)N1CCC[C@H]1[C@H](OC)[C@@H](C)C(=O)N[C@H](C)[C@@H](O)c1ccccc1)OC)N(C)C(=O)[C@@H](NC(=O)[C@@H](NC)C(C)C)C(C)C [MMAE, monomethyl auristatin E] (H-[NMeV]V[Dil][Dolaproine]-X2) | – | – | – | complete elimination of visible comets | – | – | – | – | – | – | – | – | – | – | – | undetectable | severely toxic and above the maximum tolerated dose
